In patent US20120189543A1, “Compositions and Methods for Detecting and Treating Implant Loosening and Osteolysis” (priority 2009, published 2012):

Key:
IL-1α mRNA = assay: PMMA particle-induced IL-1α mRNA in cultured human monocytes (real-time RT-PCR); details: 4 hours pulse P-Dex 5 μM or free Dex 0.6 μM, PMMA 3 hours; n=3; p<0.05
Method: (§1) Cells were cultured for 24 hours at a cell density of 10^6 cells/mL in a-MEM medium (Invitrogen, Carlsbad, Calif.) supplemented with 10% fetal bovine serum (VWR, West Chester, Pa.) and 1% antibiotic/antimycotic (Invitrogen, Carlsbad, Calif.) in the presence of 10 ng/mL human M-CSF (Peprotech, Rocky Hill, N.J.) in 24-well tissue culture plates (1 mL/well). Cells were then pulsed for 4 hours with P-Dex (5 μM) or free Dex (dexamethasone phosphate sodium, 0.6 μM), washed and replenished with fresh medium. […] After 24 hours, cells were treated +/−PMMA particles (30 particles/cell) for 3 hours. Total cellular RNA was prepared (RNeasy, Qiagen) and analyzed by real-time RT-PCR as previously described for inflammatory cytokines (IL 1-α, IL-1- β).

[1] = tested on: pro-inflammatory cytokine response (e.g., TNF and IL-1); assay: Particle-induced pro-inflammatory cytokine response in human monocytes; details: pretreatment of PMMA challenged monocytes
Method: as §1

IL-1β mRNA = assay: PMMA particle-induced IL-1β mRNA in cultured human monocytes (real-time RT-PCR); details: 4 hours pulse P-Dex 5 μM or free Dex 0.6 μM, PMMA 3 hours; n=3
Method: as §1

[2] = tested on: PMMA particle implantation site (calvaria); parameters: species or system Swiss Webster mice; details: mouse, in vivo
Source text: The group injected with PBS was used as a negative control and was given the same dose of P-IRDye. The mice were imaged prior to and daily after contrast agent injection using an XENOGEN IVIS® 200 Series Imaging System (Hopkinton, Mass.) to evaluate the distribution of the HPMA copolymer conjugate continuously for the 6 days.

Compound | IL-1α mRNA level of PMMA group compared with treated group (IL-1α mRNA) | effect of pretreatment on particle-induced pro-inflammatory cytokine response [1] | IL-1β mRNA level of PMMA group compared with treated group (IL-1β mRNA) | NIR signal at particle implantation site, % of the original signal intensity [2] [%] | persistence of the P-IRDye signal [2]
C[C@@H]1C[C@H]2[C@@H]3CCC4=CC(=O)C=C[C@]4(C)[C@@]3(F)[C@@H](O)C[C@]2(C)[C@@]1(O)C(=O)COP(=O)([O-])[O-].[Na+].[Na+] [Dex, dexamethasone phosphate sodium] | significantly higher | significant repression | higher (but not significantly) | – | –
IRDye 800CW-labeled HPMA Copolymer [P-IRDye] | – | – | – | 60 | over 7 days
